In assay [1] the test system is anti-thy-1 antibody-induced nephritis. In words: Anti-thy-1 antibody-induced nephritis model. It counts as in vivo, male Wistar rats. The settings on record: for Nuclear cell count in nephritic glomerulus / Urinary protein: oral, once a day until day 6, rats. Here is the method: [IV] Anti-thy-1 antlbody-induced nephritis model (in vivo)
The test compound (prednisolone, compound of Example 7-35) was orally administered to male Wistar rats (6 weeks old), and one hour later, an anti-thy-1 antibody (ox-7, 0.938 mg/ml) was administered at 0.1 ml/rat from the tail vein. The test compound was administered once a day thereafter until day 6. At day 6, the rats were forcibly loaded with 8 ml of tap water and then deprived of water for consecutive 16 hours, during which period urine samples were taken from the rats. At day 7, the rats were killed by exsanguination. The kidney was removed, weighed and fixed with formalin, and tissue samples (PAS stained) were prepared therefrom. Evaluation was done by measuring urinary protein and nuclear cell count in nephritic glomerulus section. The test compound was prepared into a suspension with 0.5% HPMC and administered at 10 ml/kg per dose.
Sham no administration of anti-thy-1 antibody,
loaded with water and orally administered
Control administration of anti-thy-1 antibody,
Prednisolone administration of anti-thy-1 antibody,
Compound of Ex. 7-35 with said test compound

Assay [2] has as its system Sheep red blood cell-induced delayed type hypersensitivity. Kind of assay: Sheep red blood cell (SRBC)-induced delayed type hypersensitivity (DTH) model. It counts as in vivo, female ddy mice. The settings on record: Mus musculus, Erythrocyte; po, mice, 1 h before SRBC challenge; paw volume 24 h after induction. Here is the method:
[III] Sheep red blood cell (SRBC)-induced delayed type hypersensitivity (DTH) model (in vivo)
Female ddy mice (6-8 weeks old) were used. On day 1, SRBC 10^7 cells were intradermally injected into the left foot pad of the mice (40 μl/foot) to immunize the mice. Five days later, the test compounds dissolved in olive oil were orally administered at 10 ml/kg. One hour later, SRBC 10^8 cells were intradermally injected into the right foot pad to induce the response. Twenty-four hours after the induction, the volume of the both paws was measured, and edema ratio was calculated by […].
(§1) In both [II] and [III], the test compounds were dissolved in DMSO and used upon dilution with olive oil (final concentration of DMSO 1%).

Assay [3] concerns the target T1, cannabinoid peripheral type (CB2) receptor (Rattus norvegicus, UniProt Q9QZN9).
T1 construct: rat cerebellar membrane fraction and spleen cells were respectively used; from tissue; host or cells: rat spleen cells (male SD rats, 7-9 weeks old)
T1 sequence (Q9QZN9 1-360): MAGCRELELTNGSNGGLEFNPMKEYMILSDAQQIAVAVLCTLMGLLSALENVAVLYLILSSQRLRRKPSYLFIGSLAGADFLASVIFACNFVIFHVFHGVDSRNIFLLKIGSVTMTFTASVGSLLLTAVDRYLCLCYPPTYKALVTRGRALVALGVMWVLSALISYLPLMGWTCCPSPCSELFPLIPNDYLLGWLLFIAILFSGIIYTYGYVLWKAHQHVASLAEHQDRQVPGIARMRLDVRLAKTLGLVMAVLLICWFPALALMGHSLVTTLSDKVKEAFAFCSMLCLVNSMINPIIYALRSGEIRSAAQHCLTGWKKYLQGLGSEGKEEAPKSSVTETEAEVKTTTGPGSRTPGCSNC
Kind of assay: Binding assay, cannabinoid peripheral type receptor (CB2), rat spleen cells, [3H]Win55212-2. The settings on record: for C/S: ratio of Ki central receptor (C) to Ki peripheral receptor (S). Here is the method:
(§2) [I] Binding Assay (in vitro)
(§3) As the sample rich in cannabinoid central type (CB1) and peripheral type (CB2) receptors, rat cerebellar membrane fraction and spleen cells were respectively used (male SD rats, 7-9 weeks old). A sample (cerebellar membrane fraction: 50 μg/ml or spleen cells: 1×10^7 cells/ml), labeled ligand ([^3 H]Win55212-2, 2 nM) and unlabeled Win55212-2 or a test compound were plated in round bottom 24 well plates, and incubated at 30° C. for 90 min in the case of cerebellar membrane fraction, and at 4° C. for 360 min in the case of spleen cells. As the assay buffer, 50 mM Tris solution containing 0.2% BSA was used for cerebellar membrane fraction, and 50 mM Tris-HBSS containing 0.2% BSA was used for spleen cells. After incubation, the samples were filtrated through a filter (Packard, Unifilter 24 GF/B) and dried. A scintillation solution (Packard, Microsint-20) was added, and the radioactivity of the samples was determined (Packard, Top count A9912V). The non-specific binding was determined by adding an excess Win55212-2 (1 μM), and specific binding was calculated by subtracting non-specific binding from the total binding obtained by adding the labeled ligand alone. The test compounds were dissolved in DMSO to the final concentration of DMSO of 0.1%. IC50 was determined from the proportion of the specifically-bound test compounds, and the Ki value of the test compounds was calculated from IC50 and Kd value of [^3 H]Win55212-2.

The test system of assay [4] is Carageenan-induced paw edema. Kind of assay: Carageenan-induced paw edema model. The settings on record: Mus musculus; po, mice, 1 h before carageenan; paw volume 3 h later. Format: in vivo, female ddy mice. As for the experimental part: [II] Carageenan-induced paw edema model (in vivo)
Female ddy mice (6-8 weeks old) were used. […] One hour after the administration, 50 μL of 1% carageenan dissolved in physiological saline was intradermally injected into the right foot pad. Three hours later, the volume of the right paw was measured and compared with that measured before the carageenan injection.
as §1

In assay [5] the target is T2, cannabinoid central type (CB1) receptor (Rattus norvegicus, UniProt P20272).
T2 construct: rat cerebellar membrane fraction and spleen cells were respectively used; from tissue; host or cells: rat cerebellar membrane fraction (male SD rats, 7-9 weeks old)
Kind of assay: Binding assay, cannabinoid central type receptor (CB1), rat cerebellar membrane fraction, [3H]Win55212-2. Here is the method:
as §2, §3

[6] abbreviates: rat spleen cells, [3H]Win55212-2 2 nM, 4° C. 360 min, read-out: Ki value, Peripheral receptor (S).

Each structure is given as a SMILES string. Structures can show the parent of a compound that is named as a salt. Where two headings read alike, the source gives them in different places.

These results are taken from US6017919A, “Compounds and pharmaceutical use thereof” (Japan Tobacco Inc., priority 1996, dated 2000).

T2 sequence (P20272 whole entry): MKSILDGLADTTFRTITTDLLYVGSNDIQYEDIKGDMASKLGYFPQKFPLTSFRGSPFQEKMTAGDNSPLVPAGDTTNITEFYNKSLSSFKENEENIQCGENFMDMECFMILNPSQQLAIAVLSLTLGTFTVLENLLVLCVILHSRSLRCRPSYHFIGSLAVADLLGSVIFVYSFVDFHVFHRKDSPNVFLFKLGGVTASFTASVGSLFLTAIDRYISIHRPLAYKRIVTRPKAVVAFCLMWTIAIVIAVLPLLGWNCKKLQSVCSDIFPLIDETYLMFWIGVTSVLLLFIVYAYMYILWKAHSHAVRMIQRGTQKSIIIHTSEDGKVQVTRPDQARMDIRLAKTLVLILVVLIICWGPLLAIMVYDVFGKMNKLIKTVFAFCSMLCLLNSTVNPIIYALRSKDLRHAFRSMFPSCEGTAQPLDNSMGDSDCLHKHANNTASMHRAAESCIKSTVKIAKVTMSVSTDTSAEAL

With `C[C@]12C=CC(=O)C=C1CC[C@@H]1[C@@H]2[C@@H](O)C[C@@]2(C)[C@H]1CC[C@]2(O)C(=O)CO` [Prednisolone, prednisolone, reference compound], in assay [1] (3 mg/kg), the “Nuclear cell count in nephritic glomerulus” value was 76.9 ± 0.9 nuclei/glomerulus and the Urinary protein is 20.9 ± 2.7 mg/16 hr.
The ED50 is the dose that gives a 50% effect, or the effect in half of the subjects. Read a high ED50 as a need for a large dose. For orientation: Ki means the equilibrium dissociation constant of an inhibitor or competing ligand from its target. As for `CCCCCOc1c(OC)ccc2c1CCN(CCc1ccc(N)cc1)C2=O` [Example 7-38, hydrochloride], the ED50 in assay [2] came out at 0.011 mg/kg; in assay [4], 0.11 mg/kg. The results for the Ki in assay [3] and in assay [5] were 9.9 nM and 220 nM, respectively. In addition, the C/S in assay [3] came to 22.
In the case of `CCCCCOc1ccc2c(c1OCCCCC)CN(CCc1ccc(N)cc1)C2=O.Cl` [Example 7-35, 2-[2-(4-aminophenyl)ethyl]-4,5-bispentyloxy-2,3-dihydroisoindol-1-one hydrochloride], in assay [1] (0.1 mg/kg), the “Nuclear cell count in nephritic glomerulus” value was 84.8 ± 1.2 nuclei/glomerulus and the Urinary protein is 15.2 ± 2.4 mg/16 hr. Moreover, in assay [1] (0.1 mg/kg, result in words), the “suppressive effect on increase in nuclear cell count in nephritic glomerulus” value is reported as “significant suppressive effect” and the “suppressive effect on increase in urinary protein” value is given as “significant suppressive effect”.
For the compound `CCCCCOc1c(OC)ccc2c1CN(CCc1ccc(O)cc1)C2=O` [Example 7-5, 2-[2-(4-hydroxyphenyl)ethyl]-5-methoxy-4-pentyloxy-2,3-dihydroisoindol-1-one], the ED50 in assay [2] stood at 0.038 mg/kg; in assay [4], 0.014 mg/kg. Also, in assay [3], the C/S is over 227. This compound also had a Ki in assay [5] of over 2500 nM.
For the compound `CCCCCNc1cc(/C=C/C(=O)NCCc2ccc(N)cc2)ccc1OC` [Example 1-35, N-[2-(4-aminophenyl)ethy]-3-(4methoxy-3-pentylaminophenyl)-acrylamide], the results for the ED50 in assay [2] and in assay [4] were 0.063 mg/kg and 0.12 mg/kg, respectively. In addition, the Ki stood at 10 nM in assay [3] (setting [6]) and 160 nM in assay [5]. For the same compound, the C/S in assay [3] is 16.
Taken in the same sequence, the figures for `CCCCCOc1cc(C(=O)NCCc2ccc(O)cc2)ccc1OCC` [Example 2-2] were 0.9 mg/kg, 0.51 mg/kg, 1.1 nM, 1100 nM and 1000.
As to `CCCCCOc1c(OC)ccc2c(=O)n(CCc3ccncc3)ccc12` [Example 7-20], the ED50 in assay [2] worked out at 0.084 mg/kg; in assay [4], 0.195 mg/kg. The C/S in assay [3] was determined as 48. For the same compound, the Ki in assay [5] (rat cerebellar membrane fraction, [3H]Win55212-2 2 nM, 30° C. 90 min, read-out: Ki value, Central receptor (C)) was 400 nM.
